Data reported in article PMC9818021, “Targets, Mechanisms and Cytotoxicity of Half-Sandwich Ir(III) Complexes Are Modulated by Structural Modifications on the Benzazole Ancillary Ligand” (Cancers, 2022).
“Also recorded” adds a separate entry of the source.

How the values were obtained:
Calf thymus DNA [1] = experiment: DNA viscosity measurements; format: binding; settings: as a function of CD/CP, overnight incubation
Procedure: Viscosity measurements were performed using a Micro-Ubbelohde viscometer whose temperature was controlled externally (25 ± 0.1 °C). The flow time was measured with a digital stopwatch. Mean values of triplicated measurements were taken to evaluate the DNA viscosity in the absence (η0) and in the presence, (η) of iridium complexes. The viscosity readings were expressed as L/L0 = (η/η0)^1/3 versus the CD/CP ratio. The data was analysed using […] where t0 and tDNA are the buffer and polynucleotide solution flow times, respectively, whereas t is the flow time of the Ir-complex/DNA mixture after the stabilization period.

Calf thymus DNA [2] = experiment: DNA melting temperature (DSC); format: binding; settings: as a function of CD/CP, overnight incubation
Procedure: Differential scanning calorimetry (DSC) studies were performed in a nano DSC (TA Instruments, Newcastle, USA) to determine the melting temperature of DNA in the absence and in the presence of different amount of the Ir(III) complexes. Cells were 300 μL platinum capillary tubes. Measurements were performed by heating the dye/polynucleotide system from 20 to 90 °C, at 1 °C/min scan rate and 3 atm pressure. To reduce the formation of bubbles upon heating to a minimum, the reference and the sample solutions were previously degassed for 30 min in a degassing station (TA Instruments, Newcastle, USA). The thermograms recorded were analysed with the NanoAnalyze 2.0 software. The buffer–buffer baseline was run at least five heating/cooling cycles until the heating was reproducible, and then, it was subtracted from the sample data.

BSA = biological target: T1, BSA (Bos taurus, UniProt P02769); experiment: Native PAGE of BSA with iridium complexes; format: binding, bovine; settings: BSA 3 µM, CD/CP = 10, overnight
T1 construct: purchased Merck Life Science S.L.U., Madrid, Spain
Procedure: Native protein electrophoresis. The interaction between BSA and iridium complexes was studied using native polyacrylamide gel electrophoresis (PAGE). The BSA concentration was 3 µM and the CD/CP ratio was 10. The samples of BSA/Ir-complexes were incubated overnight. The samples were mixed with a sample buffer (glycerol and bromophenol) and loaded into a 10% polyacrylamide gel for PAGE analysis (BioRad electrophoresis accessories). The gel was run at 80 V for 3 h, and then it was stained and destained before the gel was imaged using BioRad Gel Doc XR+ molecular imager. The staining solution contains 45% MeOH, 10% glacial acetic acid, 45% H2O and 0.1% brilliant blue, whereas the destaining solution consists of 20% MeOH, 10% glacial acetic acid and 70% H2O.

Qualitative solubility = format: physicochemical; settings: 1-2 mg, solvent up to 1 mL
Procedure: Solubility. The solubility of the complexes was qualitatively assessed. Different solvents were added drop-by-drop while shaking to a small amount of complex (around 1–2 mg) in a vial until the solvent added exceeded 1 mL. Afterwards, it was checked if the solid was or not completely dissolved and/or if the solution got coloured.

A549 cells [3] = experiment: DNA damage by phosphorylated H2AX, flow cytometry; format: cell-based, human; settings: 4 h
Procedure: DNA damage was measured using EpiQuik 8-OHdG DNA Damage Quantification Direct Kit (colorimetric) (Fischer, Waltham, MA, USA, P600396); The mitochondrial cytochrome C release was evaluated using the “Millipore’s FlowCellect Cytochrome C Kit (Millipore, FCCH100110)”. Lactate dehydrogenase activity release was measured in the culture medium using Cytotoxicity Detection Kit (Roche Diagnostic, Barcelona, Spain, 11 644 793 001). Protein synthesis was determined using Click-iT Plus O-propargyl-puromycin (OPP) Protein Synthesis Assay Kit (Invitrogen™, Waltham, MA, USA). Measurement of GSH/GSSG was determined with GSH/GSSG-Glo Assay (Promega, V6611). Measurements of OCR and ECAR with Seahorse XFp (Agilent Technologies) were determined using the XFp Cell Mito Stress Test Kit (103010-100) and XFp Glycolysis Stress Test Kit (103017-100). ATP measurement was determined with Cell Titer-Glo Luminescent Cell Viability Assay (Promega, Madison, WI, USA, G7570). Determination of DNA damage using phosphorylated H2AX measurement were performed as previously described. Cardiolipin oxidation using the fluorophore Nonyl Acridine Orange (NAO, Thermo Scientific, A1372) was performed as described. Cell viability was determined by Hoechst inclusion and Propidium iodide (PI) exclusion by standard protocols. TEM analysis were performed as described. Cell cycle analysis by flow cytometry and microarrays analysis were performed as described. Arrays data have been deposited in the ArrayExpress database at EMBL-EBI (www.ebi.ac.uk/arrayexpress) under accession number E-MTAB-860 (10 November 2022)

A549 cells [4] = experiment: Hoechst/propidium iodide staining; format: cell-based, human; settings: 16 μM
Procedure: DNA damage was measured using EpiQuik 8-OHdG DNA Damage Quantification Direct Kit (colorimetric) (Fischer, Waltham, MA, USA, P600396); The mitochondrial cytochrome C release was evaluated using the “Millipore’s FlowCellect Cytochrome C Kit (Millipore, FCCH100110)”. Lactate dehydrogenase activity release was measured in the culture medium using Cytotoxicity Detection Kit (Roche Diagnostic, Barcelona, Spain, 11 644 793 001). Protein synthesis was determined using Click-iT Plus O-propargyl-puromycin (OPP) Protein Synthesis Assay Kit (Invitrogen™, Waltham, MA, USA). Measurement of GSH/GSSG was determined with GSH/GSSG-Glo Assay (Promega, V6611). Measurements of OCR and ECAR with Seahorse XFp (Agilent Technologies) were determined using the XFp Cell Mito Stress Test Kit (103010-100) and XFp Glycolysis Stress Test Kit (103017-100). ATP measurement was determined with Cell Titer-Glo Luminescent Cell Viability Assay (Promega, Madison, WI, USA, G7570). Determination of DNA damage using phosphorylated H2AX measurement were performed as previously described. Cardiolipin oxidation using the fluorophore Nonyl Acridine Orange (NAO, Thermo Scientific, A1372) was performed as described. Cell viability was determined by Hoechst inclusion and Propidium iodide (PI) exclusion by standard protocols. TEM analysis were performed as described. […]

plasmid DNA (pUC18) = experiment: Agarose gel electrophoresis of plasmid DNA; format: binding, Escherichia coli; settings: pUC18 20 µM, overnight 37 °C
Procedure: Agarose Gel electrophoresis of plasmid DNA Overnight cultures of the strain DH5α of Escherichia coli were isolated with the Quiagen DNA purification kit. Then, 20 µM (in base pairs) of plasmid DNA (pUC18) was incubated with different concentrations of the synthesized iridium complexes overnight at 37 °C. Afterwards, 2 μL of loading buffer were added to 10 μL of the incubated samples and loaded onto a 1% agarose gel. Electrophoresis was run in TAE 1× at 6.5 V/cm during 2.5 h. Then, the agarose gel was stained with ethidium bromide 1 μg/mL and visualized with a Gel Doc XR+ Imaging System (Bio-Rad, Hercules, CA, USA).

[5] = test system: ROS (superoxide anion, hydrogen peroxide); experiment: ROS generation (DHE and H2DCFDA, flow cytometry); format: cell-based; settings: after 3 h
Procedure: Specific assays with 1[C,NH] complex were performed according to manufacturer’s instructions using the following reagents from Molecular Probes (Thermo Fisher Scientific): Measurements of ROS: Dihydroethidium (DHE, D11347) and 2′, 7′-dichlorodihydrofluorescein diacetate (H2DCFDA, D399); detection of caspases 3/7: CellEvent Caspase-3/7 Green Detection Reagent (C10423); Cell viability: Live/Dead Cell Imaging Kit (R37601); Analysis of cytosolic calcium concentration: Fluo3/AM (F23915); Analysis of MMP: Tetramethylrhodamine methyl ester perchlorate (TMRM, T668). RT-qPCR’s assays were performed with the following primers/probes from Thermo Fisher Scientific: DCP1A (Hs00218198-m1), FOSB (Hs00171851-m1), EGR1(Hs0015928-m1), ATF3 (Hs00231069-m1), DDIT3 (Hs00358796-g1), PP1R15A (Hs00169585-m1), CHAC1(Hs00225520-m1), MIR9-1 (Hs04231512-s1), ATP1B2 (Hs00155922-m1), BBC3 (Hs00248075-m1), BCL2L11 (Hs00798019-s1), PMAIP1 (Hs00560402-m1), SKP2 (Hs01021864-m1) and HIST1H1B (Hs00271207-s1). RT-qPCR experiments were performed as described.

T1 sequence (P02769 25-607): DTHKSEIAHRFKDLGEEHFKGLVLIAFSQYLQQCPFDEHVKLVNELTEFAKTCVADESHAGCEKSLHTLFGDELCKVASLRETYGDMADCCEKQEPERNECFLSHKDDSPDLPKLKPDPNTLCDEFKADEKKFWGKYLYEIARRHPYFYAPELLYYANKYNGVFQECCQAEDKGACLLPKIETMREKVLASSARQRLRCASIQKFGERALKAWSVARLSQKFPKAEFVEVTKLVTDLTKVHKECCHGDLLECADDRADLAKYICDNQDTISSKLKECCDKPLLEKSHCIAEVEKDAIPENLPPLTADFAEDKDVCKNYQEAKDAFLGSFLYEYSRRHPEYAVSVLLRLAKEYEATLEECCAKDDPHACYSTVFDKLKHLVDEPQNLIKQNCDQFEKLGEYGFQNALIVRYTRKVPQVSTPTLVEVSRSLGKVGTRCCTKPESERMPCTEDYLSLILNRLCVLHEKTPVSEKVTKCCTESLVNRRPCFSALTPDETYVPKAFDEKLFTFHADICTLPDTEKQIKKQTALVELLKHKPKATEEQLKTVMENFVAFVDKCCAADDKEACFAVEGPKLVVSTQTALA

Compound	Relative viscosity of DNA (L/L0) (Calf thymus DNA [1])	∆Tm of DNA (Calf thymus DNA [2])	Interaction with BSA (BSA)	DHE fluorescence (superoxide anion levels) [5]	also measured
Cc1c(C)c(C)[c-](C)c1C.[Cl-].[Cl][Ir]1[n+]2ccccc2-c2[nH]c3ccccc3[n+]21 [3[N,NH], [(η^5-Cp*)IrCl(κ^2-N,N-pybim)]Cl]	drastically declined	-35 oC	interactions	–	Solubility in water (Qualitative solubility; listed as 3[N,NH-Cl]): soluble in water; Solubility in water (Qualitative solubility; listed as 3[N,NH-Cl]+): water-soluble
Cc1c(C)c(C)[c-](C)c1C.Cn1c2[n+](c3ccccc31)[Ir]([Cl])[n+]1ccccc1-2.[Cl-] [4[N,NMe], [(η^5-Cp*)IrCl(κ^2-N,N-pyMebim)]Cl]	–	-14 oC	interactions	–	Solubility in water (Qualitative solubility; listed as 4[N,NMe-Cl]): soluble in water; Solubility in water (Qualitative solubility; listed as 4[N,NMe-Cl]+): water-soluble
Cc1c(C)c(C)[c-](C)c1C.[Cl-].[Cl][Ir]1[NH2+]c2ccccc2-c2sc3ccccc3[n+]21 [6[CNH2,S], [(η^5-Cp*)IrCl(κ^2-N,N-apbtz)]Cl]	–	+21 oC	do not interact with the protein	–	Solubility in water (Qualitative solubility): water-soluble
Cc1c(C)c(C)[c-](C)c1C.[Cl][Ir]1[c]2ccccc2-c2[nH]c3ccccc3[n+]21 [1[C,NH], [(η^5-Cp*)IrCl(κ^2-N,C-pbim)]]	No variations	0 oC	do not interact with the protein	increased	Percentage of A549 positive cells to damage on DNA (A549 cells [3]; 8 μM): 2%; Percentage of A549 positive cells to damage on DNA (A549 cells [3]; 16 μM): 30%; Percentage of A549 positive cells to damage on DNA (A549 cells [3]; 24 μM): 87%; PI positive cells (A549 cells [4]): absent during the first 6 h of treatment; Migration pattern of plasmid DNA (plasmid DNA (pUC18)): unable to interact with DNA; Solubility in water (Qualitative solubility; listed as 1[C,NH-Cl]): insoluble in water; also recorded: soluble in DMSO, but not in water
Cc1c(C)c(C)[c-](C)c1C.[Cl][Ir]1[O]c2ccccc2-c2sc3ccccc3[n+]21 [8[CO,S], [(η^5-Cp*)IrCl(κ^2-O,N-hpbtz)]]	–	0 oC	interacts with BSA	increased	Solubility in water (Qualitative solubility; listed as 8[CO,S-Cl]): insoluble in water; also recorded: soluble in DMSO, but not in water
Cc1c(C)c(C)[c-](C)c1C.Cn1c2[n+](c3ccccc31)[Ir]([Cl])[c]1ccccc1-2 [2[C,NMe], [(η^5-Cp*)IrCl(κ^2-N,C-NMepbim)]]	No variations	0 oC	do not interact with the protein	increased	Migration pattern of plasmid DNA (plasmid DNA (pUC18)): unable to interact with DNA; Solubility in water (Qualitative solubility; listed as 2[C,NMe-Cl]): insoluble in water; also recorded: soluble in DMSO, but not in water
Cc1c(C)c(C)[c-](C)c1C.[Cl-].[Cl][Ir]1[NH2+]c2ccccc2-c2[nH]c3ccccc3[n+]21 [5[CNH2,NH], [(η^5-Cp*)IrCl(κ^2-N,N-apbim)]Cl]	–	+5 oC	do not interact with the protein	–	Solubility in water (Qualitative solubility; listed as 5[CNH2,NH-Cl]): soluble in water; Solubility in water (Qualitative solubility; listed as 5[CNH2,NH-Cl]+): water-soluble
Cc1c(C)c(C)[c-](C)c1C.[Cl][Ir]1[O]c2ccccc2-c2[nH]c3ccccc3[n+]21 [7[CO,NH], [(η^5-Cp*)IrCl(κ^2-O,N-hpbim)]]	–	0 oC	interactions	–	Solubility in water (Qualitative solubility; listed as 7[CO,NH-Cl]): insoluble in water; also recorded: soluble in DMSO, but not in water
